The target of data set [1] is UnaG protein (UniProtKB/Swiss-Prot: P0DM59.1, GenBank: AB763906.1). The conditions noted are these: binding ability to indirect bilirubin; Kumagai et al., Cell 2013, 153, 1602-1611; read-out: dissociation constant; cited from earlier work.
The nature of data set [2]: Room-temperature storage of lyophilized samples, bilirubin affinity re-measured. In kind it is physicochemical. To be noted: lyophilized sample stored at room temperature; FIG. 5. The method, then: 500 μL of the purified UnaG (CΔ0)-NLuc (NΔ1) fusion protein was added to a 15-mL Falcon tube and frozen with liquid nitrogen. Thereafter, a powder of the protein solution was obtained by a lyophilizer. The powder was stored at room temperature.
After the preparation of the lyophilized samples, in order to investigate how long the activity is maintained, the lyophilized samples that had been […] were stored at room temperature every few days, and the affinity for bilirubin was measured according to the method described in the above item 7.

As for `C=CC1=C(C)/C(=C/c2[nH]c(Cc3[nH]c(/C=C4\NC(=O)C(C)=C4C=C)c(C)c3CCC(=O)O)c(CCC(=O)O)c2C)NC1=O` [bilirubin], the Kd in data set [1] is 0.098 nM.

B1: UnaG (CΔ0)-NLuc (NΔ1) fusion protein: Fusion of UnaG (CΔ0) and NLuc (NΔ1) at the KpnI site, linker GT; amino acid sequence SEQ ID NO: 12 (protein)
chain: GGSGMVEKFVGTWKIADSHNFGEYLKAIGAPKELSDGGDATTPTLYISQKDGDKMTVKIENGPPTFLDTQVKFKLGEEFDEFPSDRRKGVKSVVNLVGEKYVQKWDGKETTYVREIKDGKLVVTLTMGDVVAVRSYRRATEGTVFTLEDFVGDWRQTAGYNLDQVLEQGGVSSLFQNLGVSVTPIQRIVLSGENGLKIDIHVIIPYEGLSGDQMGQIEKIFKVVYPVDDHHFKVILHYGTLVIDGVTPNMIDYFGRPYEGIAVFDGKKITVTGTLWNGNKIIDERLINPDGSLLFRVTINGVTGWRLCERILA
modifications: UnaG(C 0)-NLuc(N 1)
As to B1, the “activity (affinity for bilirubin) after storage” value in data set [2] was “activity was maintained”.

Values taken from US11619628B2, “Device and determination system using same” (Osaka University, priority 2017, dated 2023).
